Experimental data from patent US20210349099A1, “CANCER BIOMARKERS AND METHODS OF USE THEREOF” (X4 Pharmaceuticals, Inc., priority 2017, published 2021).

Experiments:
in vivo = experiment: in vivo
Protocol: In certain embodiments, the dosage composition may be provided twice a day in divided dosage, approximately 12 hours apart. In other embodiments, the dosage composition may be provided once daily. […] Dosage for oral administration may be from about 100 mg to about 1200 mg once or twice per day.

melanoma tumor interface = experiment: Multiplex IHC and HALO count of CD8+ cells at the tumor interface; format: in vivo, human
Protocol: CD8-labeled cells within […] of the inside or outside of the tumor boundary with normal tissue were counted. The number of CD8^+ cells/mm^2 was plotted against distance from the boundary in […] bands.

[1] = tested on: melanoma tumor gene signatures; experiment: NanoString nCounter gene expression of FFPE melanoma biopsies; format: in vivo, human
Excerpt: FFPE gene expression analysis: For each gene biomarker, RNA was extracted from FFPE slides using Qiagen's AllPrep kit (Cat. 80234) and analyzed using NanoString nCounter platform with the PanCancer Immune probe set. Raw counts were normalized using the geometric mean of 30 housekeeping genes and the normalized data from both panels were merged and analyzed with nSolver software (Version 4.0).
Interferon gene signature was based on Ayers et al (JCI 2017) and calculated in the following manner. For each patient (pt) sample, the geometric mean was calculated from the normalized counts for six genes (IFN-γ, CXCL9, CXCL10, HLA-DRA, IDO1, STAT1) and then the mean was Log 10-transformed to generate the Gene Expression score. […] Gene scores were calculated for each patient sample from the geometric mean of normalized counts for IFN-gamma, CXCL9, CXCL10, HLA-DRA, IDO1, and STAT1. The mean was Log 10-transformed to generate the Gene Expression score.
The tumor inflammatory signature (TIS) was calculated from 18 genes by taking the Log 10 of the geometric mean of the normalized counts across each gene set to generate a “Gene signature score”. See, e.g., Righi E, Kashiwagi S, Yuan J, et al. “CXCL12/CXCR4 Blockade Induces Multimodal Antitumor Effects That Prolong Survival in an Immunocompetent Mouse Model of Ovarian Cancer,” Cancer Res. 2011; 71(16):5522-5534.
Raw counts were normalized using the geometric mean of housekeeping genes. The Interferon-gamma gene signature score was assessed by a procedure essentially as described in Ayers et al. (2017) J. Clin. Invest. 127:2930-2940.
To perform the CTL signature measurement, RNA was extracted from FFPE slides using Qiagen's AllPrep kit and analyzed using the NanoString nCounter platform with the PanCancer Immune probe set. Raw counts were normalized using the geometric mean of housekeeping genes. NanoString nCounter validation is described at Malkov et al. (2009) BMC Research Notes; 2:80; accessed Nov. 2, 2017 at https://bmcresnotes.biomedcentral.com/articles/10.1186/1756-0500-2-80; Waggott et al. (2012) Bioinformatics 28:1546-1548; see also nCounter® Analysis System User Manual (July 2015), published by NanoString Technologies®, Inc., accessed Nov. 2, 2017, at https://www.nanostring.com/application/files/7114/8942/6665/MAN-C0035-05_nCounter Analysis_System_GEN2.pdf.
For each gene biomarker, RNA was extracted from FFPE slides using Qiagen's AllPrep kit (Cat. 80234) and analyzed using NanoString nCounter platform with the PanCancer Immune probe set. Raw counts were normalized using the geometric mean of housekeeping genes, as described above.
Antigen Presentation/Processing Gene Signature was calculated by taking the geometric mean of the normalized counts for eighteen (18) genes (B2M, CD74, CTSL, CTSS, HLA-DMA, HLA-DMB, HLA-DOB, HLA-DPA1, HLA-DPB1, HLA-DQA1, HLA-DQB1, HLA-DRA, HLA-DRB1, HLA-DRB3, PSMB8, PSMB9, TAP1, and TAP2) and then Log 10-transforming the mean to generate the Gene Expression Score.
Tumor Inflammation Signature was calculated by taking the geometric mean of the normalized counts for eighteen (18) genes (CCL5, CD27, CD274, CD276, CD8A, CMKLR1, CXCL9, CXCR6, HLA-DQA1, HLA-DRB1, HLA-E, IDO1, LAG3, NKG7, PDCD1LG2, PSMB10, STAT1, and TIGIT) and then Log 10-transforming the mean to generate the Gene Expression Score.

[2] = tested on: B16-OVA tumor microenvironment; experiment: Flow cytometry of immune cell populations in B16-OVA tumor tissue; format: in vivo, C57BL/6 mice
Protocol: Single cell suspensions were prepared from tumor tissues by treating with collagenase and analyzing for various immune cell populations using flow cytometry. Cell surface markers included CD3, CD8, Perforin, CD15CD11b (MDSC), and FoxP3 (Treg). […] The enhancement was even greater for combination therapy with anti-PD-1.

[3] = Phase 1 and 2a trials; cited from earlier work
[4] = pre- vs post-dosing, five patients
[5] = pre- vs post-dosing, patients 2, 3, 5, 8, and 9

terminal half-life (in vivo): approximately 14.5 hrs | half-life (in vivo; terminal half-life): 12 to 24 h
SMILES: NCCCCN(Cc1nc2ccccc2[nH]1)[C@H]1CCCc2cccnc21 [X4P-001]
CD8 Avg. Density (melanoma tumor interface; Week 4, Day 1 380.0449): 1550.5403 cells/mm^2 | CD8 Within Interface Area (melanoma tumor interface; Week 4, Day 1 5233): 7557 | CD8 Count (melanoma tumor interface; Week 4, Day 1 8924): 25894 | total density of CD8+ cells within the boundary area compared with baseline (melanoma tumor interface; after 3 weeks of monotherapy, within 100 μM of tumor boundary): increased four-fold | CD8A expression ([1]; NanoString nCounter): increased | CD8B expression ([1]; NanoString nCounter): increased | granzyme B expression ([1]; NanoString nCounter): increased | Tumor Inflammation Signature Gene Expression Score, Post-X4P-001 Score ([1]; Patient 2, Pre-Dose Score 2.123, Log 10 of geometric mean of 18 genes): 2.225 | Antigen Presentation/Processing Gene Expression Score, Post-X4P-001 Score ([1]; Patient 2, Pre-Dose Score 2.94, Log 10 of geometric mean of 18 genes): 2.986 | Tumor Inflammation Signature Gene Expression Score, Post-X4P-001 Score ([1]; Patient 3, Pre-Dose Score 2.647): 2.798 | Antigen Presentation/Processing Gene Expression Score, Post-X4P-001 Score ([1]; Patient 3, Pre-Dose Score 3.139): 3.324 | Tumor Inflammation Signature Gene Expression Score, Post-X4P-001 Score ([1]; Patient 5, Pre-Dose Score 2.871): 3.257 | Antigen Presentation/Processing Gene Expression Score, Post-X4P-001 Score ([1]; Patient 5, Pre-Dose Score 3.519): 3.806 | Tumor Inflammation Signature Gene Expression Score, Post-X4P-001 Score ([1]; Patient 8, Pre-Dose Score 2.508): 2.834 | Antigen Presentation/Processing Gene Expression Score, Post-X4P-001 Score ([1]; Patient 8, Pre-Dose Score 3.134): 3.518 | Tumor Inflammation Signature Gene Expression Score, Post-X4P-001 Score ([1]; Patient 9, Pre-Dose Score 2.233): 2.597 | Antigen Presentation/Processing Gene Expression Score, Post-X4P-001 Score ([1]; Patient 9, Pre-Dose Score 3.082): 3.495 | cytotoxic T lymphocyte (CTL) gene signature gene expression score [1, 4]: increased for each one of the five patients | interferon gamma (IFN-γ) gene signature Gene Expression Score [1, 4]: increased for each one of the five patients | Antigen Presentation/Processing Gene Expression Score, change [1, 5]: increased for each patient | Tumor Inflammation Signature Gene Expression Score, change [1, 5]: increased for each patient | suppressor cell counts (Tregs and MDSC) [2]: substantially decreased | pharmacodynamic activity: circulating white blood cells (WBCs) [3]: dose- and concentration-related changes | volume of distribution (VL) [3]: high
